Consider one compound from patent US20060167106A1, “Compounds acting at the centrosome” (priority 2004, published 2006).

Experiment [1] relates to MDA-435 breast cancer cells. Kind of experiment: Multi-ubiquitin Western blotting in MDA-435 cells. The format is cell-based. The settings on record: for increase of ubiquitinated proteins of the cell lysates: 500 nM. The protocol:
Louis, Mo.) immediately before use, on ice for 1 hour. After scraping, the lysates were cleared by centrifugation at 13,000 RPM for 10 minutes at 4° C. Protein content was determined using a Bradford assay and bovine serum albumin as a standard (Bio-Rad Laboratories, Hercules, Calif.). Samples were solubilized by boiling in SDS sample buffer and subjected to SDS-PAGE. The proteins were subsequently transferred to a PVDF membrane (Bio-Rad, Hercules, Calif.). […] The alkaline phosphatase-conjugated secondary antibodies (Invitrogen, Carlsbad, Calif.) were diluted in blocking buffer and incubated with the blot for 1 hour at room temperature. The secondary antibodies were detected by the Western Breeze Chemiluminescent Kit (Invitrogen, Carlsbad, Calif.) and imaged using a Kodak 440 Image Station. Proteins targeted for degradation by the ubiquitin-dependent proteolytic pathway are tagged with multi-ubiquitin molecules. […] In this assay, accumulation of multi-ubiquitinated proteins in the cells is indicative of the impairment of proteasome activity.
In general terms: Immunoblotting shows a protein as a band on a membrane.

The target of the next experiment is T1, Aurora-A kinase (Homo sapiens, UniProt O14965).
T1 construct: purchased MBL International (CycLex)
T1 sequence (O14965 1-403): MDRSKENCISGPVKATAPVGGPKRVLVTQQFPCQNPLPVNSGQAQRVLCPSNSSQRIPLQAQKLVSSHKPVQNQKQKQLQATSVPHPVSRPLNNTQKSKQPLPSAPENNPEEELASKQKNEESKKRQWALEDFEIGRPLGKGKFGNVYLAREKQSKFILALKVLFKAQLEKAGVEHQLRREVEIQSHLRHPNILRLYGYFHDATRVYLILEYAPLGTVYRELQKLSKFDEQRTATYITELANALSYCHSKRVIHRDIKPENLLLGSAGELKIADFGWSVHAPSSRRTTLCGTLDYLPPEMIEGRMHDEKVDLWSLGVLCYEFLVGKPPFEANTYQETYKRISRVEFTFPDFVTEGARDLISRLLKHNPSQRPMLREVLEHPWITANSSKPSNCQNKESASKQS
The experiment in a line: Aurora-A Kinase Assay (ELISA, Lats2 phosphorylation). The settings on record: 50 nM to 50 μM. It counts as biochemical. (In general: ELISA stands for enzyme-linked immunosorbent assay.)

A further experiment relates to CV-1 cells. Kind of experiment: Actin (phalloidin) fluorescence in CV-1 cells. The settings on record: 0.5 μM, 6 hours. It counts as cell-based, monkey. The protocol:
CV-1 cells were obtained from ATCC and grown in chamber slides (Labtek, Campbell, Calif.) for 24 hours in 90% Eagle's MEM with 10% BCS before treatment. […] Cells were then washed in PBS and fixed in 3.7% formaldehyde solution in PBS for 10 minutes at room temperature. Cells were washed again twice in PBS for 5 minutes before incubation with AlexaFluoR488 conjugated phalloidin (1:40 dilution; Molecular Probes, Eugene, Oreg.) and 1% bovine serum albumin (BSA) in PBS at 37° C. for 30 minutes.

Experiment [2] deals with bovine brain microtubule-associated protein (MAP)-rich tubulin. The experiment in a line: MAP-Rich Tubulin Polymerization Assay. The settings on record: 0.5 μM Compound 1 alone or with 3 μM Taxol. It counts as biochemical. The protocol:
In vitro tubulin polymerization assays were repeated in the presence of microtubule-associated proteins (MAPs). Lyophilized bovine brain microtubule-associated protein (MAP)-rich tubulin and PEM buffer (80 mM Na-PIPES (pH 6.9), 1 mM MgCl2, 1 mM EGTA) were purchased from Cytoskeleton (Denver, Colo.). […] Absorbance at 340 nm was measured every minute for 60 minutes at 37° C. using a Perkin Elmer HTS 7000 spectrophotometer.

For a further experiment, the system named is MCF-7 cells. The experiment in a line: α-tubulin-YFP localization in MCF-7 cells. It counts as cell-based. The settings on record: 40 hours after treatment with 500 nM for 25 hours. From the text:
MDA-435, MCF-7, CV-1, HT-29 and MCF-10A cell lines were maintained with 10% FBS-containing DMEM media. […] Living cells were examined using a fluorescent microscope for α-tubulin-YFP expression. Cells in single colonies that had microtubules labeled with tubulin-YFP were lifted and expanded using G418-containing media.

Experiment [3] concerns CRL-2261 (non-Hodgkin's lymphoma). Kind of experiment: Viability and cell growth of CRL-2261 cells. The settings on record: for Total cells (×10^6): CRL-2261, 36 hour treatment; for Total cells (×10^7): CRL-2261, 48 hour treatment. It counts as cell-based. On the procedure: (§1) The viability and cell growth of two lymphoma cell lines, CRL-2261 (non-Hodgkin's lymphoma) and U937 (histiocytic lymphoma), were assayed following treatment with Compound 1 for 36-48 hours. Viability of the cells was determined using a kit from Molecular Probes (Eugene, Oreg.) that labels live cells green (calcein AM) and dead cells red (ethidium homodimer) according to manufacturer's instructions. Fluorescence of calcein and ethidium homodimer in cells was imaged using standard filters for FITC and Texas Red, respectively, with the Nikon TE300 microscope/digital imaging system.

The next experiment has as its system CHO cells. Kind of experiment: Oregon Green 488-Taxol localization in CHO cells. The format is cell-based, Chinese hamster. The settings on record: 0.5 μM Compound 1. The protocol:
A fluorescent compound, Oregon Green 488-Taxol (Molecular Probes/Invitrogen), was utilized to determine the distribution of Taxol in CHO cells (FIG. 33). In addition, the targeting of fluorescent Taxol to centrosomes was examined in Compound 1-treated cells (FIG. 34). Non-transfected wild-type CHO cells and HeLa cells were cultured in 2-well chambered cover-slips for 24-48 hours before treatment. Oregon Green 488-Taxol stock solution was made with DMSO. […] Oregon Green 488-Taxol fluorescence in living cells or fixed cells was imaged using a standard filter for FITC with the Nikon TE300 microscope/digital imaging system.

The subject of experiment [4] is U937 (histiocytic lymphoma). Kind of experiment: Viability and cell growth of U937 cells. The settings on record: for Total cells (×10^6): U937, 36 hour treatment. The format is cell-based. The protocol: as §1

“Also recorded” adds a separate entry of the source.

Description for Aurora-A kinase: In the assay, the amount of phosphorylated substrate is measured by binding to ST-3B11, an anti-phospho-Lats2 serine83 monoclonal antibody, subsequently incubating with horseradish peroxidase-conjugated anti-mouse IgG, which then catalyzes the conversion of the chromogenic substrate tetra-methylbenzidine (TMB) from a colorless solution to a blue solution. The color is then quantified by spectrophotometry, which reflects the relative amount of Aurora-A activity in the sample.
The assay was then performed according to the manufacturer's instructions using 40 Units/well of recombinant Aurora A enzyme. In the ‘enzyme control’ Aurora A enzyme and the ‘ATP minus control’, ATP was omitted from the reaction mixture. […] The color was quantified using a spectrophotometer (Perkin Elmer HTS 7000 Bio Assay Reader) at 450/535 nm wavelengths.

For the compound `CN(NC(=O)CC(=O)NN(C)C(=S)c1ccccc1)C(=S)c1ccccc1` [Compound 1], in experiment [1] (0.5 μM Compound 1 versus Velcade 500 nM (and 5 nM), Western blot), the “accumulation of ubiquitinated proteins / level of proteasome inhibition compared with Velcade” value was “significantly less accumulation of ubiquitinated proteins in cultured cells than Velcade; also recorded: below that of the positive control”. In addition, the results for the “increase of ubiquitinated proteins of the cell lysates” value in experiment [1] (6 hours of treatment in cell culture) and in experiment [1] (24 hours of treatment in cell culture) were 210.03 and 243.11, respectively. Further, the “accumulation of multi-ubiquitinated proteins” value in experiment [1] (MDA-435 cells, 0.5 μM, 6 and 24 hours) is listed as “induced the accumulation of multi-ubiquitinated proteins”. Moreover, the “inhibition of the phosphorylation of Lats2 by Aurora-A kinase” value on Aurora-A kinase was “did not inhibit the phosphorylation of Lats2 by Aurora-A kinase”. For the same compound, in the experiment with CV-1 cells, the “organization of the actin network” value is “dramatic alterations in the cells' actin cytoskeletal networks; also recorded: induced the disappearance of cytosolic actin bundles”. The “influence on MAP-enriched tubulin polymerization” value in experiment [2] was “does not influence MAP-enriched tubulin polymerization”. Further, the “accumulation of α-tubulin-YFP at centrosome-like structures” value with MCF-7 cells is reported as “accumulation of α-tubulin-YFP at centrosome-like structures”. For the same compound, the “cell death / growth inhibition of CRL-2261 cells” value in experiment [3] (36-48 hours) was “significant cell death of CRL-2261 cells; also recorded: more significantly inhibited than growth of U937 cells”. Besides, the “Total cells (×10^6)” value is reported as 0.69 ×10^6 in experiment [3] (500 nM), 0.75 ×10^6 in experiment [3] (5000 nM), 2.13 ×10^6 in experiment [4] (500 nM) and 2.40 ×10^6 in experiment [4] (5000 nM). Besides, the “Total cells (×10^7)” value is listed as 1.32 ×10^7 in experiment [3] (0.5 nM); 1.11 ×10^7 in experiment [3] (5 nM); 0.26 ×10^7 in experiment [3] (50 nM); 0.14 ×10^7 in experiment [3] (500 nM); 0.16 ×10^7 in experiment [3] (5000 nM). Moreover, in the experiment on CHO cells, the “effect on the accumulation of Taxol (Oregon Green 488-Taxol) at centrosomes” value is “no effect on the accumulation of Taxol at centrosomes”. In addition, the “cell death of U937 cells” value in experiment [4] (36 hours) was “less affected”.
